# Experiments:
# Pain and/or Inflammation = assay: Tests on various subjects: cream applied to the inflamed skin area for pain and/or inflammation; format: in vivo, human; design: key to Pain Condition After Last Application: CD: complete disappearance of pain; RP: residual pain (i.e.: equivalent to mild pain intensity); key to Pain Intensity After Application: No pain: 0; Mild pain: +; Moderate pain: ++; Severe pain: +++ (i.e.: interference with sleep and/or day's activities)
# Description: Compound 1, and more particularly Composition 1, was tested on several subjects so as to verify its activity as anti-inflammatory agent and/or analgesic. As it can be seen from Table 1, test subjects having various inflammations or pain have been treated with Composition 1. In each case, a small amount of Composition 1, in the form of a cream, was applied to inflammated skin area by means of a short gentle rub.
# All data were provided under testimony of all volunteers.
# M: male • a) Pain intensity rating: • No pain: 0 • Mild pain: + • Moderate pain: ++ • Severe pain: +++ (i.e.: interference with sleep and/or day's activities). • b) Pain condition after the last application of Compound 1. • CD: complete disappearance of pain. • RP: residual pain (i.e.: equivalent to mild pain intensity).
# [1] = solubility in water of Compound 1; format: physicochemical
# From the text: The mass spectroscopy analysis (electrospray/scanning) using a Micromass quattra ll triple quadrupole mass spectrometer with a GC and HPLC interface, confirmed the previously illustrated formula for Compound 1. Analysis of Compound 1 was done by mass spectroscopy, positive mode, preparation of samples in 2% acetonitrile-98% methanol. […] The product observed was the following: B3C3H11O9 (223.5 g per mole). […] The purity of the obtained product was>98 % (confirmed by 500 MHz ^1H NMR analysis) and the solubility in water was at maximum 7% w/w, yielding a clear colorless solution.
# An analysis of Compound 1, prepared by using metaboric acid and glycerol, was conducted under the same condition as for Compound 1 with boric acid and glycerol. […] The product observed was the following: B3C3H11O9 (223.5 g per mole). […] When compared to Compound 1 prepared from boric acid and glycerol, the purity and solubility of the obtained product were similar i.e. a purity of ≈98% with solubility in water at maximum of 7% w/w, yielding a colorless solution.
# [2] = all four subjects with chronic diseases, after application
structure (smiles),measurement,setting,value
"CC(=O)Oc1ccccc1C(=O)O [Aspirin®, acetylsalicylic acid, reference compound]",gastric adverse effect that prompted discontinuation,"Pain and/or Inflammation; medications taken in the past by the volunteers, testimony",severe gastric burning sensation
OB(O)OCC(COB(O)O)OB(O)O [Compound 1],solubility in water,"[1]; Compound 1 prepared from boric acid and glycerol, clear colorless solution",≤ 7 % w/w
same,solubility in water,"[1]; Compound 1 prepared from metaboric acid and glycerol, colorless solution",≤ 7 % w/w
same,subjects with total disappearance of pain,Pain and/or Inflammation; 30 minutes after application of the cream containing Compound 1,Four subjects out of six
same,complete loss of stiffness,Pain and/or Inflammation; [2],within four four hours
same,reduced sensation of stiffness,Pain and/or Inflammation; [2],within two hours
same,time to complete relief of the pain after the application,"Pain and/or Inflammation; four subjects with chronic lower back pain, fibromyalgia or arthritis",approximately 30 minutes
same,"pain after last application, all subjects",Pain and/or Inflammation; including three out of six who required a maximum of three applications,complete disappearance of pain for all subjects
same,time to relapse of pain,"Pain and/or Inflammation; one out of four subjects with chronic disease, who required three applications",approximately 12 hours
same,"pain intensity, all volunteers","Pain and/or Inflammation; six volunteers, topical cream",reduced pain intensity for all volunteers
same,loss of swelling at joints and of tenderness sensation,Pain and/or Inflammation; subjects with fibromyalgia and arthritis,approximately the same time-frames as reported earlier for stiffness
same,time to complete disappearance of pain,Pain and/or Inflammation; two subjects with an injury to a leg,within three days
same,effect compared with medications taken in the past for the same chronic afflictions,"Pain and/or Inflammation; versus acetaminophen/Tylenol, acetaminophen-codeine/Empracet or acetylsalicylic acid/Aspirin, testimony of volunteers",higher than medications taken in the past
same,Pain Condition After Last Application,"Pain and/or Inflammation; volunteer D-123-S, injury, leg, 3 applications",CD
same,Pain Intensity After Application,"Pain and/or Inflammation; volunteer D-123-S, injury, leg, before application ++, 3 applications, topical cream",+
same,Time to Pain Relief,"Pain and/or Inflammation; volunteer D-123-S, injury, leg, before application ++, topical cream",0.5 h
same,Pain Condition After Last Application,"Pain and/or Inflammation; volunteer D-321-J, fibromyalgia, hands, 1 application",CD*
same,Pain Intensity After Application,"Pain and/or Inflammation; volunteer D-321-J, fibromyalgia, hands, before application +++, 1 application, topical cream",0
same,Time to Pain Relief,"Pain and/or Inflammation; volunteer D-321-J, fibromyalgia, hands, before application +++, topical cream",0.5 h
same,Pain Condition After Last Application,"Pain and/or Inflammation; volunteer D-457-D, fibromyalgia, hands & feet, 1 application",CD*
same,Pain Intensity After Application,"Pain and/or Inflammation; volunteer D-457-D, fibromyalgia, hands & feet, before application ++, 1 application, topical cream",0
same,Time to Pain Relief,"Pain and/or Inflammation; volunteer D-457-D, fibromyalgia, hands & feet, before application ++, topical cream",0.5 h
same,Pain Condition After Last Application,"Pain and/or Inflammation; volunteer D-633-J, lower back pain, musculoskeletal, 1 application",CD*
same,Time to Pain Relief,"Pain and/or Inflammation; volunteer D-633-J, lower back pain, musculoskeletal, before application ++, topical cream",0.5 h
same,Pain Intensity After Application,"Pain and/or Inflammation; volunteer D-633-J, lower back pain, musculoskeletal, lower back, central, before application ++, 1 application, topical cream",0
same,Pain Condition After Last Application,"Pain and/or Inflammation; volunteer D-701, arthritis, wrists, 3 applications",CD
same,Time to Pain Relief,"Pain and/or Inflammation; volunteer D-701, arthritis, wrists, before application ++, topical cream",0.5 h
same,Pain Intensity After Application,"Pain and/or Inflammation; volunteer D-942-L, injury, leg, before application +++, 3 applications, topical cream",++
same,Pain Condition After Last Application,"Pain and/or Inflammation; volunteer D-942-L, injury, leg, 3 applications",CD
same,Time to Pain Relief,"Pain and/or Inflammation; volunteer D-942-L, injury, leg, before application +++, topical cream",8.0 h
